In the OPERA property sets (Mansouri et al. 2018):

logP	Compound
1.87	CC1C(c2ccccc2)OC(O)(c2ccccc2)CN1C (centres undefined)
2.27	CCOC1(c2ccccc2)OCCN(C)C1C (centres undefined)
2.23	CCOC1(c2ccccc2)CN(C)CC(C)O1 (centres undefined)
2.09	C=CCOC1(c2ccccc2)CN(C)CCO1 (centres undefined)
2.13	CCCOC1(c2ccccc2)CN(C)CCO1 (centres undefined)
2.23	CCCCOC1(c2ccccc2)CN(C)CCO1 (centres undefined)
1.87	C#CCOC1(c2ccccc2)CN(C)CCO1 (centres undefined)

Second part, the molecule before the results:

Compound	logP
CN1CCOC(O)(c2ccc(Br)cc2)C1 (centres undefined)	1.57
CC1N(C)CCOC1(O)c1ccccc1 (centres undefined)	1.92
CC(C)COC1(c2ccccc2)CN(C)CCO1 (centres undefined)	2.17
CN1CCOC(O)C1c1ccccc1 (centres undefined)	0.99
CC1CN(C)CC(O)(c2ccccc2)O1 (centres undefined)	1.79
CN1CCOC(O)(c2cccc(C(F)(F)F)c2)C1 (centres undefined)	1.39
CN1CCOC(O)(c2ccccc2)C1 (centres undefined)	1.54
